Experimental data published in ChEMBL document CHEMBL1138972, “Discovery of potent CRTh2 (DP2) receptor antagonists” (Bioorg Med Chem Lett, 2006).
Activity calls are given as the source filed them. No cut-off for these calls is given here.

Experiments:
physchem = details: buffer, pH 7.4
Description: Lipophilicity, LogD at pH 7.4

[1] = molecular target: T1, Prostaglandin D2 receptor 2 (Homo sapiens, UniProt Q9Y5Y4); experiment: Displacement of [3H]PGD2 from human CRTh2 expressed in HEK293 cells; type: cell-based
T1 sequence (Q9Y5Y4 whole entry): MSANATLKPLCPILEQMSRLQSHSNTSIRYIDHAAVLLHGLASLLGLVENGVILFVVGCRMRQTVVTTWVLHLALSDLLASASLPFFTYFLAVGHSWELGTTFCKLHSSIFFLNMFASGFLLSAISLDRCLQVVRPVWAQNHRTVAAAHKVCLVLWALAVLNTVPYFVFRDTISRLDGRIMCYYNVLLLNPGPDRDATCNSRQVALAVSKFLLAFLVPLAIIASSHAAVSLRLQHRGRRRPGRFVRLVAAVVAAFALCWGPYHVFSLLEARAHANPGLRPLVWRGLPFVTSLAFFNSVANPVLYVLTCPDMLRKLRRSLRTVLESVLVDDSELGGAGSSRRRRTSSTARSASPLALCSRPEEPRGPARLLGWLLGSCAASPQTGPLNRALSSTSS

[2] = molecular target: T2, Prostaglandin D2 receptor (Homo sapiens) (UniProt Q13258); experiment: Binding affinity to DP1 receptor in HEK293 cells by radioligand binding assay; type: cell-based
T2 sequence (whole entry): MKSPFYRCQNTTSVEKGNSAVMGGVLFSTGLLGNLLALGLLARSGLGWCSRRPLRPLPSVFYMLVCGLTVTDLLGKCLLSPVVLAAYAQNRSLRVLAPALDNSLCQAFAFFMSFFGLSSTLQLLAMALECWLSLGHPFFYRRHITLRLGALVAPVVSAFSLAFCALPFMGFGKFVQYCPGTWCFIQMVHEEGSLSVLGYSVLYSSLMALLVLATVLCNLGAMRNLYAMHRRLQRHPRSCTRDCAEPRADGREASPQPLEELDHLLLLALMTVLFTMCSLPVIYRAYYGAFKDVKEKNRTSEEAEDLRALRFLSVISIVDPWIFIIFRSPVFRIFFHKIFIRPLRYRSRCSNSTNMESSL

[3] = molecular target: T3, Prostaglandin D2 receptor 2 (Homo sapiens) (UniProt Q9Y5Y4); experiment: Agonist activity at CRTh2 receptor; type: functional
T3 sequence (whole entry): T1 sequence (Q9Y5Y4 whole entry)

Homo sapiens = species: Homo sapiens; experiment: Protein binding in human plasma; details: read-out: PPB (converted)
[4] = Intrinsic clearance in rat hepatocytes per 10^6 cells
[5] = molecular target: Voltage-gated inwardly rectifying potassium channel KCNH2 (Homo sapiens, UniProt Q12809); experiment: Binding affinity to hERG in HEK293 cells by radioligand binding assay; type: cell-based
Voltage-gated inwardly rectifying potassium channel KCNH2, sequence (Q12809 whole entry): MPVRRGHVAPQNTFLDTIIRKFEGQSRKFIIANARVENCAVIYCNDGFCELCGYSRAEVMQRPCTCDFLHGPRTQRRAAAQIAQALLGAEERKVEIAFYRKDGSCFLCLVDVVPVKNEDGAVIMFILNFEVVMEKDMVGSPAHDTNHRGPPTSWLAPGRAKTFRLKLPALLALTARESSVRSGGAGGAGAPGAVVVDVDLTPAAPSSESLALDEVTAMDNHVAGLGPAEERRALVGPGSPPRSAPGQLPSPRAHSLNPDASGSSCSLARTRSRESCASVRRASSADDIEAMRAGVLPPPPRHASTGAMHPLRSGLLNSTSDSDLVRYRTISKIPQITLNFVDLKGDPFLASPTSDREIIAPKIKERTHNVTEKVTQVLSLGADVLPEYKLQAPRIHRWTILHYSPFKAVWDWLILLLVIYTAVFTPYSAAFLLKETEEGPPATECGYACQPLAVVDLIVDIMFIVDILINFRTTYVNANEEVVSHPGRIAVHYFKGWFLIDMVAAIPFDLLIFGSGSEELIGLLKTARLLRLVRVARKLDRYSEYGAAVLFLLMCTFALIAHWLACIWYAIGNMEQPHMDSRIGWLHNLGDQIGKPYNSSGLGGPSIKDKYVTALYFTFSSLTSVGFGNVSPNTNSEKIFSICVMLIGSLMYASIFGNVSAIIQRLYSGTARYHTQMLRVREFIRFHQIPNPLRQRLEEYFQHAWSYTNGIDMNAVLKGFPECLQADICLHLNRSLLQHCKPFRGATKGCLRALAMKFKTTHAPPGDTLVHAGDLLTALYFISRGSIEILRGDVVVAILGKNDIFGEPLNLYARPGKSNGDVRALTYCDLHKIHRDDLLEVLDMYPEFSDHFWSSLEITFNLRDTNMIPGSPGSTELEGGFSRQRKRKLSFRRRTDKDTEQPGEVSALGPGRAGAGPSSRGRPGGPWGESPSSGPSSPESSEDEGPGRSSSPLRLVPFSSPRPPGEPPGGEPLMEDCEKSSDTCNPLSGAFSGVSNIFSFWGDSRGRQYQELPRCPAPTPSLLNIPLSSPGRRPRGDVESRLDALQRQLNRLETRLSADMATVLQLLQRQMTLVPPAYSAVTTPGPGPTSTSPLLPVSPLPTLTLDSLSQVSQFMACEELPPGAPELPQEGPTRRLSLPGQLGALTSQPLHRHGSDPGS

[6] = Bioavailability in dog; type: ADME, organism-based, Canis lupus familiaris; details: in vivo
[7] = Intrinsic clearance in human hepatocytes per 10^6 cells
[8] = (§1) Half life in rat; type: ADME, organism-based; details: in vivo
[9] = Protein binding in rat plasma; type: ADME, cell-free; details: read-out: PPB (converted)
[10] = molecular target: Prostaglandin G/H synthase 1 (Homo sapiens, UniProt P23219); experiment: Inhibition of COX1
Prostaglandin G/H synthase 1, sequence (P23219 whole entry): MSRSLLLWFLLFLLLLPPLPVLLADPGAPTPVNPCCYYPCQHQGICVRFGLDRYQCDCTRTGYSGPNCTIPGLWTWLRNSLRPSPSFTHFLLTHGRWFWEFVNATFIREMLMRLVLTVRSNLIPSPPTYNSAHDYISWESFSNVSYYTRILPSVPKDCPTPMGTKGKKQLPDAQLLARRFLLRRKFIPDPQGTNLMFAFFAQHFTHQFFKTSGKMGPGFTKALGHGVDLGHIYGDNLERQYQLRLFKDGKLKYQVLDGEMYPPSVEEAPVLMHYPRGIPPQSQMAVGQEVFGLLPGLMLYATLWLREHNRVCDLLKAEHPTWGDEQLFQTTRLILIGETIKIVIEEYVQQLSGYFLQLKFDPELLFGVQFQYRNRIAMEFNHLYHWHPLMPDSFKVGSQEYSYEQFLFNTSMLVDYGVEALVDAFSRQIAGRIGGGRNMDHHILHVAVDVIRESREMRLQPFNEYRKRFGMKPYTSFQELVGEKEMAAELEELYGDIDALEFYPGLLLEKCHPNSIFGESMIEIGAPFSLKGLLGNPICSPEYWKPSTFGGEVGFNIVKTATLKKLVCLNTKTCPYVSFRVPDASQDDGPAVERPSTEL

[11] = Clearance in rat; type: ADME, organism-based; details: in vivo
[12] = (§2) Volume of distribution in rat; type: ADME, organism-based; details: in vivo, read-out: Vss
[13] = molecular target: T3, Prostaglandin D2 receptor 2 (Homo sapiens); experiment: Activity at CRTh2 measured as calcium flux changes in HEK293 cells by FLIPR; type: functional, cell-based
Cytochrome P450 2C9 = Cytochrome P450 2C9 (Homo sapiens, UniProt P11712); experiment: Inhibition at CYP2C9; type: ADME
Cytochrome P450 2C9, sequence (P11712 whole entry): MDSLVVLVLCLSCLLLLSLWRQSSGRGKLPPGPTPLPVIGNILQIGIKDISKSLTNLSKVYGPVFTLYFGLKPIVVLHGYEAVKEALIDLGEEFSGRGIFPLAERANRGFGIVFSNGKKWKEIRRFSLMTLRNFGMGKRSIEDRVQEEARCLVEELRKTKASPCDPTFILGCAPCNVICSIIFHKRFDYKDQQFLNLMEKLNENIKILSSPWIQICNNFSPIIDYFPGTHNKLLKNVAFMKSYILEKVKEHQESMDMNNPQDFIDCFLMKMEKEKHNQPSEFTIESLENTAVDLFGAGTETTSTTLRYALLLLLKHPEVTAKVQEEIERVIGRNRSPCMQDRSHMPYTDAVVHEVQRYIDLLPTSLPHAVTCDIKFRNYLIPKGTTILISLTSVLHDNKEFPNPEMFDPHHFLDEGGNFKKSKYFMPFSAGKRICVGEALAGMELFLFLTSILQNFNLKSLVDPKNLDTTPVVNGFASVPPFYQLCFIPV

[14] = Clearance in dog; type: ADME, organism-based, Canis lupus familiaris; details: in vivo
[15] = molecular target: Sodium-dependent serotonin transporter (Rattus norvegicus, UniProt P31652); experiment: Inhibition at rat serotonin transporter
Sodium-dependent serotonin transporter, sequence (P31652 whole entry): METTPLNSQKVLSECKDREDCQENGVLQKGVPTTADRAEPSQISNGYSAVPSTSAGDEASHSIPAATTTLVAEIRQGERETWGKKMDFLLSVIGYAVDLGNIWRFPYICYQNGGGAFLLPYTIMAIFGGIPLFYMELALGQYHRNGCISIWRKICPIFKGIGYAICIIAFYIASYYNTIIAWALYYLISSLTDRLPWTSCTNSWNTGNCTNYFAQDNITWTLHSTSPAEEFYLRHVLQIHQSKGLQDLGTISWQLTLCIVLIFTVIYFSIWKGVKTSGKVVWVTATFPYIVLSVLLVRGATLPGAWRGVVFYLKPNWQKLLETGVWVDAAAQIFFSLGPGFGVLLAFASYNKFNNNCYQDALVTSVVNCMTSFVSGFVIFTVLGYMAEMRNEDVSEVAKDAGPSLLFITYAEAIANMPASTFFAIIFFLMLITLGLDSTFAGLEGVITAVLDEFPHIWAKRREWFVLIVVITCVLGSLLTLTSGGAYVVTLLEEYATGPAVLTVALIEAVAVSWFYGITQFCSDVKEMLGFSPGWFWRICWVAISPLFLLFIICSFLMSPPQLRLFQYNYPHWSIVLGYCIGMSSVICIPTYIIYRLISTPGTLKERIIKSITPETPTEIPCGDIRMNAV

Rattus norvegicus [16] = species: Rattus norvegicus; experiment: as §1; type: ADME, organism-based; details: in vivo
[17] = Bioavailability in rat; type: ADME, organism-based; details: in vivo
Cytochrome P450 2C19 = Cytochrome P450 2C19 (Homo sapiens, UniProt P33261); experiment: Inhibition at recombinant human CYP2C19; type: ADME
Cytochrome P450 2C19, sequence (P33261 whole entry): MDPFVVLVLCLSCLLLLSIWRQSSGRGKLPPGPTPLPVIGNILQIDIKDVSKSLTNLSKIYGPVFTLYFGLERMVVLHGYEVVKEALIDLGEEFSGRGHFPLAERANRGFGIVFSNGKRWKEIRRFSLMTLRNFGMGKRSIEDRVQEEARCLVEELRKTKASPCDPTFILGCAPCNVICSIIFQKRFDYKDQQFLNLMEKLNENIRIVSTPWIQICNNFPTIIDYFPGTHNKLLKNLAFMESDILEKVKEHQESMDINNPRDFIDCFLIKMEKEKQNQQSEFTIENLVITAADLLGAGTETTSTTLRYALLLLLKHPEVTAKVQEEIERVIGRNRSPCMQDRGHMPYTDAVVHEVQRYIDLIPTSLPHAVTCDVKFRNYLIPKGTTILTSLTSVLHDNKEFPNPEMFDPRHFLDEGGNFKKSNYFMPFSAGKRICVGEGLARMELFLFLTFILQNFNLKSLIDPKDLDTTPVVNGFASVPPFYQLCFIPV

[18] = Volume of distribution in dog; type: ADME, organism-based, Canis lupus familiaris; details: in vivo, read-out: Vss
[19] = Half life in dog; type: ADME, organism-based, Canis lupus familiaris; details: in vivo
[20] = molecular target: Aldo-keto reductase family 1 member B1 (Rattus norvegicus, UniProt P07943); experiment: Inhibition at rat aldose reductase
[21] = molecular target: T4, Prostaglandin G/H synthase 2 (Homo sapiens, UniProt P35354); experiment: Inhibition of COX2
T4 sequence (P35354 whole entry): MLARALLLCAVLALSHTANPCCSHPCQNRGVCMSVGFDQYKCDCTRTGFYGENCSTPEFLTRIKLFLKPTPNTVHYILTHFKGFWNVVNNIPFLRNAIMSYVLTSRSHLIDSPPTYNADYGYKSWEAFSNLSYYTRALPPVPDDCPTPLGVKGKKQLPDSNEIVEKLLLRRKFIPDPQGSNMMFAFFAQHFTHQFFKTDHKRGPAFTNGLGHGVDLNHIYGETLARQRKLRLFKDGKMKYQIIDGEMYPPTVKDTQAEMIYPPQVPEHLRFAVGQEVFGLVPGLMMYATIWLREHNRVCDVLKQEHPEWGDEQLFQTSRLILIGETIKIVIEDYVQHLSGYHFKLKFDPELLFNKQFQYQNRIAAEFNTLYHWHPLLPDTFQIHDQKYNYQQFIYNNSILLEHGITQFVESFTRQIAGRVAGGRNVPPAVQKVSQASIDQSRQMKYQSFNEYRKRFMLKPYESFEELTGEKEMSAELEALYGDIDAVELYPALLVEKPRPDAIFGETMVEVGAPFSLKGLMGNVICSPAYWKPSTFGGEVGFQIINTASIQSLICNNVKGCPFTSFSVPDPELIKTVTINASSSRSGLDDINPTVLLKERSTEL

Rattus norvegicus [22] = species: Rattus norvegicus; experiment: as §2; type: ADME, organism-based; details: in vivo

SMILES | logD (physchem) | IC50 [1] [nM] | Activity [2] [µM] | Activity [3] | fraction unbound (Homo sapiens) | hepatocyte CLint [4] [µL/min/1e6 cells] | hepatocyte CLint [7] [µL/min/1e6 cells] | Activity [5] [µM] | other results
Cc1ccc2c(c1)c(-c1cc(C)nc3ccccc13)c(C)n2CC(=O)O | 2.9 | 18 | > 6 | inactive | 0.004 | 5 |  | > 6 | 
COc1cccc2c(-c3c(C)n(CC(=O)O)c4ccc(C)cc34)ccnc12 | 0.5 | 11 | > 6 | inactive |  | 7 |  | > 6 | bioavailability [6]: 13%
Cc1c(CC(=O)O)c2ccccc2n1-c1ccncn1 |  | 5200 | > 6 | inactive |  |  |  | > 6 | Activity ([13]; filed as partial agonist): Partial agonist
Cc1ccc2c(c1)c(-c1ccnc3c(S(C)(=O)=O)cccc13)c(C)n2CC(=O)O | 0.3 | 23 | > 6 | inactive | 0.064 |  |  | > 6 | bioavailability [6]: 5%
Cc1ccc2c(c1)c(-c1ccnc3ccc(C(F)(F)F)cc13)c(C)n2CC(=O)O | 1.8 | 68 | > 6 | inactive |  | 16 |  | > 6 | 
Cc1ccc2c(-c3ccnc4cc(Cl)ccc34)c(C)n(CC(=O)O)c2c1 |  | 125 | > 6 | inactive |  |  |  | > 6 | 
COc1ccc2c(c1)c(CC(=O)O)c(C)n2-c1ccnc2cc(Cl)ccc12 | 1.7 | 180 | > 6 | inactive |  | 6.5 | 1.4 | > 6 | half-life [8]: 2.2 h; bioavailability [17]: 62%; Activity ([13]; filed as antagonist): Antagonist; IC50 (Cytochrome P450 2C19): 1600 nM; clearance [11]: 11 mL/min/kg; Vd [12]: 2.3 L/kg
COc1ccc2c(c1)c(-c1ccnc3cc(Cl)ccc13)c(C)n2CC(=O)O |  | 50 | > 6 | inactive | 0.003 | 5 |  | > 6 | 
Cc1ccc2c(c1)c(-c1ccnc3ccccc13)c(C)n2CC(=O)O |  | 21 | > 6 | inactive |  | 10.7 | 3 | > 6 | 
Cc1ccc2c(c1)c(-c1ccnc3c(C#N)cccc13)c(C)n2CC(=O)O |  | 18 | > 6 | inactive |  | < 3 |  | > 6 | 

These reach a lower IC50 [1]. Values come first.

logD (physchem) | IC50 [1] [nM] | Activity [2] [µM] | Activity [3] | fraction unbound (Homo sapiens) | hepatocyte CLint [4] [µL/min/1e6 cells] | hepatocyte CLint [7] [µL/min/1e6 cells] | SMILES | Activity [5] [µM] | other results
1.6 | 8 | > 6 | inactive | 0.002 | 6 | 3.8 | Cc1ccc2c(c1)c(-c1ccnc3cc(Cl)ccc13)c(C)n2CC(=O)O | > 6 | half-life [8]: 6.7 h; fraction unbound [9]: 0.02; IC50 [10]: 400 nM; clearance [11]: 6 mL/min/kg; Vd [12]: 1.4 L/kg
 | 2.6 | > 6 | inactive |  | 5.5 | 1.9 | Cc1ccc2c(c1)c(-c1ccnc3c(C)cccc13)c(C)n2CC(=O)O | > 6 | IC50 (Cytochrome P450 2C9): 5000 nM; clearance [14]: 1 mL/min/kg; IC50 [15]: 2000 nM; T1/2 (Rattus norvegicus [16]): 1.7 h; bioavailability [17]: 76%; IC50 (Cytochrome P450 2C19): 2500 nM; Vd [18]: 0.2 L/kg; fraction unbound [9]: 0.02; IC50 [10]: 3000 nM; half-life [19]: 5.3 h; IC50 [20]: 150 nM; IC50 [21]: 3000 nM; Vss (Rattus norvegicus [22]): 1.4 L/kg; bioavailability [6]: 100%
1.8 | 5.4 | > 6 | inactive | 0.004 |  |  | Cc1ccc2c(c1)c(-c1ccnc3cc(C(F)(F)F)ccc13)c(C)n2CC(=O)O | > 6 | 
1.3 | 2.3 | > 6 | inactive | 0.006 | < 3 | 2 | Cc1ccc2c(c1)c(-c1ccnc3c(Cl)cccc13)c(C)n2CC(=O)O | > 6 | half-life [19]: 2.4 h
1.3 | 6 | > 6 | inactive | 0.004 |  |  | Cc1ccc2c(c1)c(-c1ccnc3c(C(F)(F)F)cccc13)c(C)n2CC(=O)O | > 6 | 
0.5 | 7.1 | > 6 | inactive | 0.009 | < 1 | 1.6 | Cc1ccc2c(c1)c(-c1ccnc3c(F)cccc13)c(C)n2CC(=O)O | > 6 | 
